We go through 4 compounds from patent US20100035934A1, “PYRIDINYL-PYRAZOLE DERIVATIVES AND THEIR USE AS POTASSIUM CHANNEL MODULATORS” (NeuroSearch A/S, priority 2007, published 2010).

Each structure is given as a SMILES string.

This assay deals with T1, hSK3 channels (Homo sapiens, UniProt Q9UGI6).
T1 construct: expressed in transfected cells; host or cells: HEK293
Description: Whole-cell patch-clamp recording of ionic current through SK channels (subtype 3) in HEK293 cells expressing hSK3. Format: cell-based. The settings on record: baseline current at -75 mV, free Ca2+ 0.3-0.4 μM, room temperature. On the procedure: The ionic current through small-conductance Ca^2+-activated K^+ channels (SK channels, subtype 3) is recorded using the whole-cell configuration of the patch-clamp technique.
HEK293 tissue culture cells expressing hSK3 channels were grown in DMEM (Dulbecco's Modified Eagle Medium) supplemented with 10% FCS (foetal calf serum) at 37° C. in 5% CO2. At 60-80% confluency, cells were harvested by trypsin treatment and seeded on cover slips.
Experiments are carried out on one of several patch-clamp set-ups. Cells plated on coverslips are placed in a 15 μl perfusion chamber (flowrate ˜1 ml/min) mounted on an IMT-2 microscope. The microscopes are placed on vibration-free tables in grounded Faraday cages. All experiments are performed at room temperature (20-22° C.). EPC-9 patch-clamp amplifiers (HEKA-electronics, Lambrect, Germany) are connected to Macintosh computers via ITC16 interfaces. Data are stored directly on the hard-disk and analysed by IGOR software (Wavemetrics, Lake Oswega, Oreg., USA).
The whole-cell configuration of the patch-clamp technique is applied. In short: The tip of a borosilicate pipette (resistance 2-4 MΩ) is gently placed on the cell membrane using remote control systems. Light suction results in the formation of a giga seal (pipette resistance increases to more than […]) and the cell membrane underneath the pipette is then ruptured by more powerful suction. Cell capacitance is electronically compensated and the resistance between the pipette and the cell interior (the series resistance, Rs) is measured and compensated for. Usually the cell capacitance ranges from 5 to 20 pF (depending on cell size) and the series resistance is in the range 3 to 6 MΩ. Rs—as well as capacitance compensation are updated during the experiments (before each stimulus). All experiments with drifting Rs-values are discharged. Leak-subtractions are not performed.
The extracellular (bath) solution contains (in mM): 154 mM KCl, 0.1 CaCl2, 3 MgCl2, 10 HEPES (pH=7.4 with HCl). The test compound was dissolved 1000 times in DMSO from a concentrated stock solution and then diluted in the extracellular solution.
The intracellular (pipette) solution contained: 154 mM KCl, 10 mM HEPES, 10 mM EGTA. Concentrations of CaCl2 and MgCl2 needed to obtain the desired free concentrations of Ca^2+ (0.3-0.4 μM, Mg^2+ always 1 mM) were calculated by EqCal software (Cambridge, UK) and added.
After establishment of the whole-cell configuration, voltage-ramps (normally −80 to +80 mV) are applied to the cell every 5 seconds from a holding potential of 0 mV. […] Active compounds are quantified by calculating the change in baseline current at −75 mV. […]
For `Cc1cc(C)n(-c2cccc(Nc3ccc(Cl)cc3)n2)n1` [Compound A1, (4-Chloro-phenyl)-[6-(3,5-dimethyl-pyrazol-1-yl)-pyridin-2-yl]-amine], the “The SC100 (Stimulating Concentration required for increasing the baseline current by 100%)” value was 0.03 µM.
Regarding `Clc1ccc(Nc2cccc(-n3cccn3)n2)c(Cl)c1` [Compound A8, (2,4-Dichloro-phenyl)-(6-pyrazol-1-yl-pyridin-2-yl)-amine], the “The SC100 (Stimulating Concentration required for increasing the baseline current by 100%)” value turned out to be 0.3 µM.
On to `Cc1cc(C)n(-c2cccc(Nc3ccc(F)c(F)c3)n2)n1` [Compound C4, (3,4-Difluoro-phenyl)-[6-(3,5-dimethyl-pyrazol-1-yl)-pyridin-2-yl]-amine], for which the “The SC100 (Stimulating Concentration required for increasing the baseline current by 100%)” value came to 0.4 µM.
In the case of `CNc1cc(-n2nc(C)cc2C)nc(Nc2ccc(Cl)cc2)c1N` [Compound D1, 3-Amino-2-(4-chlorophenylamino)-6-(3,5-dimethylpyrazol-1-yl)-4-methylamino-pyridine], the “The SC100 (Stimulating Concentration required for increasing the baseline current by 100%)” value was 0.1 µM.
